Laboratory results published in publication PMC8151276, “An Integrated Approach toward NanoBRET Tracers for Analysis of GPCR Ligand Engagement” (Molecules, 2021).

Experiments:
Assay type in all cases: binding
MTNR1B = molecular target: T1, MTNR1B (Homo sapiens, UniProt P49286); assay: NanoBRET screen HiBiT-MTNR1B in HEK293
T1 construct: purchased Promega (in-house HiBiT-GPCR construct library, NanoBRET)
T1 sequence (P49286 1-362): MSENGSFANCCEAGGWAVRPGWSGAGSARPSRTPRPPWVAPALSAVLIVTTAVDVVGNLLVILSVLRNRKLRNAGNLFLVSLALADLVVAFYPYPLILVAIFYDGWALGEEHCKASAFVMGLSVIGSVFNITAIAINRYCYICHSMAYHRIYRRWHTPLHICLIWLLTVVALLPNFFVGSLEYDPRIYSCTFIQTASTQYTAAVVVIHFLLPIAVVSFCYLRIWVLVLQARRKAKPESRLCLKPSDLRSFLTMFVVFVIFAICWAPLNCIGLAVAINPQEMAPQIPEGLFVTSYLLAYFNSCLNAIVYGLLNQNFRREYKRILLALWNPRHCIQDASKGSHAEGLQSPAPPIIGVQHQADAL
Procedure: (§1) Each tracer candidate was screened across the entire library of HiBiT-GPCR constructs using NanoBRET as the detection modality. As depicted in Figure 4A, the specificity of interactions was evaluated through decrease in BRET due to competitive displacement of a bound tracer by excess parental compound. Each tracer was analyzed for binding to each HiBiT-GPCR fusion in the absence and in the presence of competing parental compound. Briefly, HEK293 cells were transfected with HiBiT-GPCR constructs diluted into promoterless DNA to reduce expression and maximize translocation to the cell surface. Each tracer candidate was then screened at concentrations of 1 μM and 0.1 μM across cells expressing these fusions. Cells were treated for 1.5 h with tracer either alone or in the presence of 20 μM competing parental compound (i.e., control). BRET was measured upon addition of purified LgBiT and subsequent complementation with HiBiT genetically fused to a GPCR. The specificity of interactions was assessed through a decrease in BRET signal due to competitive displacement of the bound tracer. To further gauge the robustness of these interactions, the fold response over the control (i.e., BRETtracer/BRETcontrol) was calculated. We chose a 1.5-fold response, which translates to ≥7-fold signal over noise as the minimal threshold required to score an interaction as positive. […]. Below we highlight the screening results obtained for our exemplary fluorescent tracers based on Clozapine, Amitriptyline and AZD1283.
(§2) HiBiT-GPCR DNA constructs were diluted in 10 mM Tris pH 8 to a final concentration of 0.01 μg/μL, arrayed in 96-well plates and stored at −20 °C. For transfection, HEK293 cells were suspended in Opti-MEM (without phenol red) supplemented with 2% fetal bovine serum (Seradigm) and 100 units/mL penicillin–streptomycin (Gibco) at a final concentration of 220,000 cells/mL and dispensed into white 96-well plates at 90 μL/well. Subsequent transfections and screens were carried using an Agilent Bravo Automated Liquid Handling Platform. First, the 96-well HiBiT DNA arrays were diluted 25-fold in Opti-MEM (without serum or phenol red) to a final concentration of 0.0004 μg/μL and 20 μL of the diluted DNAs were transferred into new 96-well plates. Next, promoterless carrier DNA (1 μg/μL) was diluted 25-fold (0.04 μg/μL) and then dispensed into the diluted arrays at 20 μL/well. Following brief mixing, Viafect transfection reagent (Promega) diluted 16-fold into Opti-MEM was dispensed into the plates at 40 μL/well. After mixing by pipetting, plates were incubated for 10 min on the pipetting station deck. The DNA-transfection reagent complexes were then added to plates containing cells. To facilitate the screen, 10 μL of DNA-transfection reagent complexes were added in duplicates to the top 4 and bottom 4 rows, resulting in two identical 48-well arrays per plate. Plates with transfected cells were incubated for 18–20 h at 37 °C/5% CO2. A screen of each tracer across the entire library using two different concentrations requires duplicate plates of transfected cells. Depending on the number of tracers being screened, transfections can be scaled up using the same ratios. The next day, for each tracer, four 20× screening solutions in tracer dilution buffer (Promega) were prepared: two duplicates at final concentration of 20 μM and two duplicates at a final concentration of 2 μM. A competing unmodified compound was added to one of each duplicate at a final concentration of 400 μM. The four resulting solutions were diluted 4-fold in Opti-MEM without serum or phenol red to generate 5× solutions (5 µM and 0.5 µM tracer +/− 100 μM competing compound). To screen the library, a BioTek MultiFlo FX liquid dispenser was used to dispense 22.5 µL of tracer solution to the top 4 rows and 22.5 µL tracer + competing compound solution to the 4 bottom rows. Plates were briefly mixed on an orbital shaker and incubated for 1.5 h at room temperature. […]

ADORA2B = molecular target: T2, ADORA2B (Homo sapiens, UniProt P29275); assay: NanoBRET screen HiBiT-ADORA2B in HEK293
T2 construct: purchased Promega (in-house HiBiT-GPCR construct library, NanoBRET)
T2 sequence (P29275 1-332): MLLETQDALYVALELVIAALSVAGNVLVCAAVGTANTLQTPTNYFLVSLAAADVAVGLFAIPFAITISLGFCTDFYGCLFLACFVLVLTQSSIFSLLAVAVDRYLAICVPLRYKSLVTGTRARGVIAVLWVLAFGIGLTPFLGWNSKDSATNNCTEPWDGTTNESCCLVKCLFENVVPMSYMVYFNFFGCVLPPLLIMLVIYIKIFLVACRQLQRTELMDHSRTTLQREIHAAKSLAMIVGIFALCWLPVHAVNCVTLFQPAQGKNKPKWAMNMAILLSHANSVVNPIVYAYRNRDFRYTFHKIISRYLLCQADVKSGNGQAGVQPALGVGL
Procedure: as §1, §2

GRM4 = molecular target: T3, GRM4 (Homo sapiens, UniProt Q14833); assay: NanoBRET screen HiBiT-GRM4 in HEK293
T3 construct: purchased Promega (in-house HiBiT-GPCR construct library, NanoBRET)
T3 sequence (Q14833 33-912): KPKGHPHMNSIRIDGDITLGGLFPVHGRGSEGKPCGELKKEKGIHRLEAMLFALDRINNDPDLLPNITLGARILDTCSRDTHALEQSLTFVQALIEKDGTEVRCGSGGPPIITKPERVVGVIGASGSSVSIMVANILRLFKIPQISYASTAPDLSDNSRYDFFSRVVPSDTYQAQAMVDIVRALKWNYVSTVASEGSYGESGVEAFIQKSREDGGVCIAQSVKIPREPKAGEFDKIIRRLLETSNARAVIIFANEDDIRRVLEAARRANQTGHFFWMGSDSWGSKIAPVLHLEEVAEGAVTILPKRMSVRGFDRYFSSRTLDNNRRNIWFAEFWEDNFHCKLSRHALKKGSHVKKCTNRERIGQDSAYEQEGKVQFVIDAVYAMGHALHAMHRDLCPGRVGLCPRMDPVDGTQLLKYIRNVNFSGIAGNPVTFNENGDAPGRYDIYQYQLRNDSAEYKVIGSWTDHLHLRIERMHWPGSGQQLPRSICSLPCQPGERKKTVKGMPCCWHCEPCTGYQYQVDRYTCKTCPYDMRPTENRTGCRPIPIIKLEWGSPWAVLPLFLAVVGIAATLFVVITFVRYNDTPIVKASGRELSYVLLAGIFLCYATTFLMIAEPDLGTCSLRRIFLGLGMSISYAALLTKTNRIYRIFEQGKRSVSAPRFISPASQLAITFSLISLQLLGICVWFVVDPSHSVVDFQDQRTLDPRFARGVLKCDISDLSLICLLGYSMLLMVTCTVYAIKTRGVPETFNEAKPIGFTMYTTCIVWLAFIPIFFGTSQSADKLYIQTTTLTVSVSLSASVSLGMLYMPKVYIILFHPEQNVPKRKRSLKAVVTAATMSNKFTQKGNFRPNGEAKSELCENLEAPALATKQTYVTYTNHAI
Procedure: as §1, §2

FZD1 = molecular target: T4, FZD1 (Homo sapiens, UniProt Q9UP38); assay: NanoBRET screen HiBiT-FZD1 in HEK293
T4 construct: purchased Promega (in-house HiBiT-GPCR construct library, NanoBRET)
T4 sequence (Q9UP38 70-647): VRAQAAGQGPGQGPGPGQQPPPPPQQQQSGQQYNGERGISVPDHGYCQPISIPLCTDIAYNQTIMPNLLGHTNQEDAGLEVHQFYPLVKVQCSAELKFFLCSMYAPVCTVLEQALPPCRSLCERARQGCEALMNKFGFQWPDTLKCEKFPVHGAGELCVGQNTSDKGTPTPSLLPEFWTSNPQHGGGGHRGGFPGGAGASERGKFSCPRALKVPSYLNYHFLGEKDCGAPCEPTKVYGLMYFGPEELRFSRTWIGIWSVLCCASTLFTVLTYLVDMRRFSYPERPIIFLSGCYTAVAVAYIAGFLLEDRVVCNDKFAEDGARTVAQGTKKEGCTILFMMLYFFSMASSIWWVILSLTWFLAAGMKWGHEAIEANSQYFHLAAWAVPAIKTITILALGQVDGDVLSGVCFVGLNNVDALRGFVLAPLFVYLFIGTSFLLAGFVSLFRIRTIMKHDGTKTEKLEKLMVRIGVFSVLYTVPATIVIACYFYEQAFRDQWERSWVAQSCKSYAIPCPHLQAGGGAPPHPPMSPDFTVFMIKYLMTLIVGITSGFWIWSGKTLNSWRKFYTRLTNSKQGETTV
Procedure: as §1, §2

[1] = tracer at 0.1μM, listed as amitriptyline-b-2-NB590

| SMILES | NanoBRET Fold Response (MTNR1B; MTNR1B, 0.1μM tracer) | NanoBRET Fold Response (MTNR1B; MTNR1B, 1μM tracer) | NanoBRET Fold Response (ADORA2B; ADORA2B, 0.1μM tracer) | NanoBRET Fold Response (ADORA2B; ADORA2B, 1μM tracer) | NanoBRET Fold Response (GRM4; GRM4, 0.1μM tracer) | NanoBRET Fold Response (GRM4; GRM4, 1μM tracer) | NanoBRET Fold Response (FZD1; FZD1, 0.1μM tracer) | NanoBRET Fold Response (FZD1; FZD1, 1μM tracer) | NanoBRET Fold Response (MTNR1B; MTNR1B, tracer 0.1μM) | NanoBRET Fold Response (MTNR1B; MTNR1B, tracer 1μM) | NanoBRET Fold Response (ADORA2B; ADORA2B, tracer 0.1μM) | NanoBRET Fold Response (ADORA2B; ADORA2B, tracer 1μM) | NanoBRET Fold Response (GRM4; GRM4, tracer 0.1μM) | NanoBRET Fold Response (GRM4; GRM4, tracer 1μM) | NanoBRET Fold Response (FZD1; FZD1, tracer 0.1μM) | NanoBRET Fold Response (FZD1; FZD1, tracer 1μM) | further results |
| --- | --- | --- | --- | --- | --- | --- | --- | --- | --- | --- | --- | --- | --- | --- | --- | --- | --- |
| CN1CCN(C2=Nc3cc(Cl)ccc3N(CC(=O)NCCOCCOCCOCCOCCNC(=O)CCc3ccc4n3[B-](F)(F)[N+]3=C(c5ccc[nH]5)C=CC3=C4)c3ccccc32)CC1 [Clozapine-c-2-NB590] | 0.98 | 1.02 | 1.07 | 0.91 | 0.94 | 1.14 | 1.02 | 1.06 |  |  |  |  |  |  |  |  |  |
| N#CN=C(NCCCOc1cccc(CN2CCCCC2)c1)NCCNC(=O)CCOCCOCCOCCOCCNC(=O)CCc1ccc2n1[B-](F)(F)[N+]1=C(c3ccc[nH]3)C=CC1=C2 [Aminopotentidine-2-NB590] |  |  |  |  |  |  |  |  | 0.99 | 0.99 | 1.37 | 1.06 | 1.02 | 1.01 | 1.07 | 1.12 |  |
| COc1ccc2c(n1)c(CCNC(C)=O)cn2CCNC(=O)CCc1ccc2n1[B-](F)(F)[N+]1=C(c3ccc[nH]3)C=CC1=C2 [Azamelatonin-1-NB590] |  |  |  |  |  |  |  |  |  |  |  |  |  |  |  |  | NanoBRET Fold Response (MTNR1B; 0.1μM tracer): 1.07; NanoBRET Fold Response (MTNR1B; 1μM tracer): 1.12; NanoBRET Fold Response (ADORA2B; 0.1μM tracer): 0.49; NanoBRET Fold Response (ADORA2B; 1μM tracer): 0.60; NanoBRET Fold Response (GRM4; 0.1μM tracer): 1.09; NanoBRET Fold Response (GRM4; 1μM tracer): 0.78; NanoBRET Fold Response (FZD1; 0.1μM tracer): 1.10; NanoBRET Fold Response (FZD1; 1μM tracer): 1.10 |
| CC(C)N(CC[C@H](c1ccccc1)c1cc(CCNC(=O)c2ccc(CNC(=O)CCc3ccc4n3[B-](F)(F)[N+]3=C(c5ccc[nH]5)C=CC3=C4)cc2)ccc1O)C(C)C [Tolterodine-BZ-NB590] |  |  |  |  |  |  |  |  | 0.97 | 1.04 | 0.67 | 0.73 | 1.02 | 0.99 | 1.04 | 0.95 |  |
| O=C(CCc1ccc2n1[B-](F)(F)[N+]1=C(c3ccc[nH]3)C=CC1=C2)NCCOCCOCCNC(=O)OCCOCCN1CCN(C2=Nc3ccccc3Sc3ccccc32)CC1 [Quetiapine-a-2-NB590] |  |  |  |  |  |  |  |  | 1.11 | 0.92 | 0.80 | 1.02 | 0.99 | 0.92 | 1.14 | 0.96 |  |
| Cc1cc2c(s1)Nc1ccccc1N=C2N1CCN(CCCNC(=O)CCOCCOCCOCCOCCNC(=O)CCc2ccc3n2[B-](F)(F)[N+]2=C(c4ccc[nH]4)C=CC2=C3)CC1 [Olanzapine-a-2-NB590] |  |  |  |  |  |  |  |  | 0.96 | 0.94 | 0.92 | 1.04 | 0.99 | 0.93 | 0.95 | 1.04 |  |
| CN(C)CCC=C1c2ccccc2CCc2ccc(C(=O)NCCNC(=O)CCOCCOCCOCCOCCNC(=O)CCc3ccc4n3[B-](F)(F)[N+]3=C(c5ccc[nH]5)C=CC3=C4)cc21 [Amitriptyline-b-2-NB590] |  |  |  |  |  |  |  |  | 1.02 | 1.04 |  |  | 0.96 | 0.95 |  |  | NanoBRET Fold Response (ADORA2B; [1]): 1.40; NanoBRET Fold Response (FZD1; [1]): 0.97; NanoBRET Fold Response (FZD1; tracer at 1μM, listed as amitriptyline-b-2-NB590): 1.14 |
| O=C(CCOCCOCCOCCOCCNC(=O)CCc1ccc2n1[B-](F)(F)[N+]1=C(c3ccc[nH]3)C=CC1=C2)NCCCN1CCN(C2=Nc3cc(Cl)ccc3Nc3ccccc32)CC1 [Clozapine-a-2-NB590] | 1.06 | 0.97 | 1.01 | 0.67 | 1.02 | 0.99 | 0.98 | 0.93 |  |  |  |  |  |  |  |  |  |
| CN1CCN(C2=Nc3cc(Cl)ccc3Nc3ccc(CNC(=O)CCOCCOCCOCCOCCNC(=O)CCc4ccc5n4[B-](F)(F)[N+]4=C(c6ccc[nH]6)C=CC4=C5)cc32)CC1 [Clozapine-b-2-NB590] | 0.95 | 1.05 | 1.07 | 0.99 | 1.05 | 1.03 | 1.00 | 0.99 |  |  |  |  |  |  |  |  |  |
| Cc1nc2n(c(=O)c1CCN1CCC(c3noc4cc(F)ccc34)CC1)CCCC2OC(=O)NCCOCCOCCOCCOCCNC(=O)CCc1ccc2n1[B-](F)(F)[N+]1=C(c3ccc[nH]3)C=CC1=C2 (stereo not shown) [Risperidone-2-NB590] |  |  |  |  |  |  |  |  | 0.99 | 0.92 | 0.94 | 1.05 | 0.98 | 1.05 | 1.02 | 1.00 |  |
